For eleven compounds, MIC results are on record in article PMC13266999, “Designing Antibiotics with Inherent Resistance to Efflux as a Strategy to Revive Discovery against Multidrug-Resistant Pathogens” (Journal of Medicinal Chemistry, 2026).

The test system of the experiment is S. aureus. In words: MIC (microbroth dilution). In kind it is cell-based, Staphylococcus aureus. The settings on record: Staphylococcus aureus. The protocol:
All bacteria were maintained on tryptic soy agar (TSA), except Streptococcus spp., which were maintained on Columbia agar plates containing 5% horse blood. […] Bacteria were grown to stationary phase in liquid culture overnight, with shaking at 200 rpm, before being back diluted to the relevant starting concentration for each assay below. MICs were measured by the microbroth dilution method. […] Absorbance at OD600 was read on a CLARIOstar spectrophotometer (BMG Labtech) and the MIC was defined as the minimum concentration of compound where no visible growth was detected. […] MICs were also performed in the presence of the outer membrane permeator, polymyxin b nonapeptide (PMBN) following the same MIC method but with the following variation. The 2-fold dilution series of compound was prepared as above, then 50 μL of PMBN at a final concentration of 30 μg/mL was added to relevant wells, while 50 μL/well of blank media was added to the remaining wells. Bacteria were then added at 50 μL/well for a starting concentration as above. […] The MICs were read and defined as above. All animal procedures were performed by the contract research organization Pharmacology Discovery Services Taiwan in accordance with the Guide for the Care and Use of Laboratory Animals. The procedures were approved by the Institutional Ethics Committee of Pharmacology Discovery Services Taiwan, Ltd. (approval no. AB127662), in compliance with animal welfare legislation in Taiwan.
A general note: Broth dilution looks for growth in wells or tubes with falling amounts of substance.

[1] abbreviates: ATCC9144, ATCC 9144, read-out: MIC.
Setting [2] is: NCTC13277, NCTC 13277, read-out: MIC.
Setting [3] is: NCTC13616, NCTC 13616, read-out: MIC.

The structures appear in SMILES notation. Values after ≈ are worked out from the molar mass of the structure shown. Read-outs that look alike come from different tables or passages of the source.

Regarding `CCn1cc(C(=O)O)c(=O)c2cc(F)c(N3CCNCC3)cc21` [Compound 2, norfloxacin, reference compound], the MIC (in general, the lowest concentration found to suppress growth) under setting [1] was 2 µg/mL (≈ 6.26 µM); the minimum inhibitory concentration (MIC) under setting [2] is over 128 µg/mL; the minimal inhibitory concentration (MIC) under setting [3] was over 128 µg/mL.
As for `CCn1cc(C(=O)O)c(=O)c2cc(F)c(N3CCNCC3)nc21` [Compound 3, enoxacin, reference compound], the minimal inhibitory concentration (MIC) is 2 µg/mL (≈ 6.24 µM) under setting [1], 128 µg/mL (≈ 400 µM) under setting [2] and over 128 µg/mL under setting [3].
On to `CCn1cc(C(=O)O)c(=O)c2cc(F)c(N3CCN(Cc4cccc5ccccc45)CC3)cc21` [Compound 20, 1-Ethyl-6-fluoro-7-(4-(naphthalen-1-ylmethyl)piperazin-1-yl)-4-oxo-1,4-dihydroquinoline-3-carboxylic acid], for which the minimal inhibitory concentration (MIC) is 1 µg/mL (≈ 2.18 µM) under setting [1], 2 µg/mL (≈ 4.35 µM) under setting [2] and 2 µg/mL (≈ 4.35 µM) under setting [3].
`CCn1cc(C(=O)O)c(=O)c2cc(F)c(N3CCN(Cc4cccc5ccccc45)CC3)nc21` [Compound 21, 1-Ethyl-6-fluoro-7-(4-(naphthalen-1-ylmethyl)piperazin-1-yl)-4-oxo-1,4-dihydro-1,8-naphthyridine-3-carboxylic acid]: the minimum inhibitory concentration (MIC) is, setting by setting: under setting [1], 0.5 to 1 µg/mL (≈ 1.09 to 2.17 µM); under setting [2], 2 to 4 µg/mL (≈ 4.34 to 8.69 µM); under setting [3], 2 to 8 µg/mL (≈ 4.34 to 17.4 µM).
With `C[C@H]1COc2c(N3CCN(Cc4cccc5ccccc45)CC3)c(F)cc3c(=O)c(C(=O)O)cn1c23` [Compound 22, (S)-9-Fluoro-3-methyl-10-(4-(naphthalen-1-ylmethyl)piperazin-1-yl)-7-oxo-2,3-dihydro-7H-[1,4]oxazino[2,3,4-ij]quinoline-6-carboxylic acid], the MIC was 0.125 to 1 µg/mL (≈ 0.256 to 2.05 µM) under setting [1]; 2 to 4 µg/mL (≈ 4.1 to 8.2 µM) under setting [2]; 4 µg/mL (≈ 8.2 µM) under setting [3]; 0.25 µg/mL (≈ 0.513 µM) (SA-1199, read-out: MIC); 0.5 µg/mL (≈ 1.03 µM) (SA-1199B (NorA-overexpressing)).
For the compound `O=C(O)c1cn(C2CC2)c2cc(N3CCN(Cc4ccc5ccccc5c4)CC3)c(F)cc2c1=O` [Compound 23, 1-Cyclopropyl-6-fluoro-7-(4-(naphthalen-2-ylmethyl)piperazin-1-yl)-4-oxo-1,4-dihydroquinoline-3-carboxylic acid], the MIC reads like this: under setting [1], 0.125 µg/mL (≈ 0.265 µM); under setting [2], 2 µg/mL (≈ 4.24 µM); under setting [3], 2 µg/mL (≈ 4.24 µM).
Turning to `CCn1cc(C(=O)O)c(=O)c2cc(F)c(N3CCN(Cc4ccc5ccccc5c4)CC3)cc21` [Compound 24, 1-Ethyl-6-fluoro-7-(4-(naphthalen-2-ylmethyl)piperazin-1-yl)-4-oxo-1,4-dihydroquinoline-3-carboxylic acid], the minimum inhibitory concentration (MIC) under setting [1] came out at 0.25 µg/mL (≈ 0.544 µM), the minimum inhibitory concentration (MIC) under setting [2] is 4 µg/mL (≈ 8.7 µM) and the minimum inhibitory concentration (MIC) under setting [3] was determined as 4 µg/mL (≈ 8.7 µM).
On to `O=C(O)c1cn(C2CC2)c2cc(N3CCN(Cc4ccccc4)CC3)c(F)cc2c1=O` [Compound 25, 7-(4-Benzylpiperazin-1-yl)-1-cyclopropyl-6-fluoro-4-oxo-1,4-dihydro quinoline-3-carboxylic acid], for which the minimum inhibitory concentration (MIC) is 0.125 to 0.25 µg/mL (≈ 0.297 to 0.593 µM) under setting [1], 32 µg/mL (≈ 75.9 µM) under setting [2] and 16 to 32 µg/mL (≈ 38 to 75.9 µM) under setting [3].
`CCn1cc(C(=O)O)c(=O)c2cc(F)c(N3CCN(Cc4ccccc4)CC3)cc21` [Compound 26, 7-(4-Benzylpiperazin-1-yl)-1-ethyl-6-fluoro-4-oxo-1,4-dihydroquinoline-3-carboxylic acid]: the minimal inhibitory concentration (MIC) under setting [1] turned out to be 0.25 µg/mL (≈ 0.611 µM), the minimum inhibitory concentration (MIC) under setting [2] was in the range of 16 to 32 µg/mL (≈ 39.1 to 78.2 µM) and the MIC under setting [3] turned out to be 16 µg/mL (≈ 39.1 µM).
`O=C(O)c1cn(C2CC2)c2cc(N3CCN(Cc4cccc5cccnc45)CC3)c(F)cc2c1=O` [Compound 27, 1-Cyclopropyl-6-fluoro-4-oxo-7-(4-(quinolin-8-ylmethyl)piperazin-1-yl)-1,4-dihydroquinoline-3-carboxylic acid]: the minimal inhibitory concentration (MIC) runs as follows: under setting [1], 0.5 µg/mL (≈ 1.06 µM); under setting [2], 128 µg/mL (≈ 271 µM); under setting [3], 64 µg/mL (≈ 135 µM); (SA-1199, read-out: MIC) 0.125 µg/mL (≈ 0.265 µM); (SA-1199B (NorA-overexpressing)) 0.25 µg/mL (≈ 0.529 µM).
In the case of `CCn1cc(C(=O)O)c(=O)c2cc(F)c(N3CCN(Cc4cccc5cccnc45)CC3)cc21` [Compound 28, 1-Ethyl-6-fluoro-4-oxo-7-(4-(quinolin-8-ylmethyl)piperazin-1-yl)-1,4-dihydroquinoline-3-carboxylic acid], the MIC is 1 µg/mL (≈ 2.17 µM) under setting [1], 128 µg/mL (≈ 278 µM) under setting [2] and 128 µg/mL (≈ 278 µM) under setting [3].
